The source of these data is PubChem BioAssay (NCI).

Experiment in all cases: DTP human tumour cell line panel, 48 h
Experiment [1] deals with HOP-62 NSCLC.
Experiment [2] deals with COLO 205 colon.
The test system of experiment [3] is BT-549 breast.
Experiment [4] concerns HCT-15 colon.
Experiment [5] relates to TK-10 renal.
For experiment [6], the system named is SW-620 colon.
Experiment [7] relates to IGROV1 ovarian.
For experiment [8], the system named is MALME-3M melanoma.
The test system of experiment [9] is SNB-19 CNS.
Experiment [10] concerns A549 NSCLC.
The test system of experiment [11] is ACHN renal.
The test system of experiment [12] is EKVX NSCLC.
The test system of experiment [13] is NCI-H522 lung.
For experiment [14], the system named is OVCAR-8 ovarian.
Experiment [15] concerns MDA-MB-435.
Experiment [16] concerns OVCAR-3 ovarian.
The subject of experiment [17] is HOP-92 NSCLC.
Experiment [18] has as its system SK-MEL-5 melanoma.
The test system of experiment [19] is NCI-H460 lung.

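The compound was tested at five concentrations on cells cultured in 96-well plates, with a 48-hour exposure period. At the TGI there is no net growth.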

A word on the TGI: it is the concentration at which net growth stops. Low values mean greater sensitivity of the cells, high ones lower sensitivity of the cells.

With `COc1ccc(-n2c(N)c(C#N)c(C#N)c2-c2ccccc2)cc1`, the TGI in experiment [1], in experiment [2], in experiment [3], in experiment [4], in experiment [5] and in experiment [6] was above 100 µM throughout. In addition, the TGI in [7], in experiment [8], in experiment [9], in [10], in experiment [11] and in experiment [12] was above 100 µM throughout. Further, the TGI in [13] was above 100 µM; in experiment [14] it was above 100 µM; in [15], above 100 µM; in experiment [16], above 100 µM; in experiment [17], 76.5 µM; in [18] it was above 100 µM.
`CC(=O)O[C@H]1C(=O)[C@@]2(C)[C@H]([C@H](OC(=O)c3ccccc3)[C@]3(O)C[C@H](OC(=O)[C@H](O)[C@@H](NC(=O)C(C)(C)C)c4ccccc4)C(C)=C1C3(C)C)[C@]1(OC(C)=O)CO[C@@H]1C[C@@H]2O`: the TGI in experiment [1] is above 10 µM; in experiment [2], 0.251 µM; in experiment [3] it was above 10 µM; in experiment [4], above 10 µM; in [5] it was above 10 µM; in [6], above 10 µM. The total growth inhibition concentration (TGI) in experiment [7], in [8], in experiment [9], in experiment [19], in [10] and in experiment [11] was above 10 µM in each case. For the same compound, the TGI in [12] was above 10 µM; in experiment [13], 0.105 µM; in experiment [14] it was above 3.84 µM; in experiment [15], 0.034 µM; in experiment [17], above 10 µM; in [18], above 10 µM.
With `COc1ccc(C=C(c2ccc(OCc3ccccc3)cc2)c2ccc(OCc3ccccc3)cc2)cc1`, the TGI in experiment [1], in experiment [2], in experiment [4], in experiment [5], in [6] and in [7] was above 100 µM in each case. Besides, the TGI in [8], in experiment [9], in [19], in [10], in experiment [11] and in [12] was above 100 µM throughout. Also, the TGI in [13], in [14], in experiment [16] and in experiment [18] was above 100 µM each time.
For `CC(C)(C)c1ccc(/C=N/NC(=O)CSCC(=O)N/N=C/c2ccc(C(C)(C)C)cc2)cc1`, the TGI amounted to 5.84 µM in [1]; 3.7 µM in [2]; 15.8 µM in experiment [4]; 16.6 µM in [5]; 6.11 µM in experiment [6]; 10.4 µM in experiment [7]. In addition, the TGI was 24.8 µM in experiment [8]; 17.2 µM in experiment [9]; 15 µM in experiment [19]; 11.6 µM in experiment [10]; 13.5 µM in experiment [11]; 19.8 µM in experiment [12]. Further, the TGI in experiment [13] was 21.9 µM; in experiment [14], 6.49 µM; in experiment [17], 38.9 µM; in [18], 4.3 µM.
On to `O=C1C2CN(Cc3ccccc3)CC1CN(CC1CC1)C2`, for which the TGI in [1], in [2], in [4], in experiment [5], in experiment [6] and in experiment [7] was above 100 µM throughout. Besides, the TGI in [8], in [9], in experiment [19], in experiment [10], in experiment [11] and in experiment [12] was above 100 µM throughout. Further, the total growth inhibition concentration (TGI) in [13], in experiment [14], in experiment [16], in experiment [17] and in experiment [18] was above 100 µM throughout.
With `CN1Cc2cc3c(cc2-c2ccccc21)OCO3`, the TGI in experiment [2], in experiment [5], in experiment [6], in [7], in experiment [9] and in experiment [19] was above 100 µM each time. Moreover, the TGI in [10], in experiment [11], in experiment [12], in experiment [13], in experiment [14] and in [16] was above 100 µM throughout. The concentration for total growth inhibition (TGI) in experiment [17] and in experiment [18] was above 100 µM each time.
In the case of `COC1O[C@H]2[C@H]3[C@@H]1[C@@H](OS(=O)(=O)c1ccc(C)cc1)C(=O)N3C[C@H]2O` (some centres undefined), the TGI in experiment [1], in experiment [2], in experiment [3], in experiment [4], in [5] and in experiment [6] was above 100 µM throughout. In addition, the TGI in experiment [8], in experiment [9], in experiment [19], in experiment [10], in experiment [11] and in experiment [12] was above 100 µM each time. Besides, the TGI in experiment [14], in [15], in experiment [16] and in experiment [18] was above 100 µM in each case.
On to `COc1cc(/C=C2\C(=O)N(C(=O)c3ccc(NC(C)=O)cc3)N=C2C)ccc1O`, for which the TGI in experiment [1], in experiment [2], in experiment [5], in experiment [6], in [8] and in experiment [9] was above 100 µM in each case. Further, the TGI in experiment [19], in experiment [10], in experiment [11], in [12], in experiment [13] and in [14] was above 100 µM in each case. The concentration for total growth inhibition (TGI) in experiment [16] and in [18] was above 100 µM each time.
`Brc1cc2c(cc1C1SCCS1)OCO2`: the TGI in experiment [1], in experiment [4], in experiment [5], in [6], in experiment [7] and in [8] was above 100 µM each time. The TGI in [9], in experiment [19], in experiment [10], in [11], in [12] and in experiment [13] was above 100 µM throughout. For the same compound, the TGI in experiment [14], in experiment [16] and in [18] was above 100 µM in each case.
Turning to `O=C1C(=Cc2cccc(O)c2)N=C(c2ccccc2)N1n1c(-c2ccccc2)nc2ccccc2c1=O`, the TGI in experiment [2] is 79.7 µM; in [4] it was above 100 µM; in experiment [5] it was above 100 µM; in experiment [6], above 100 µM; in experiment [7] it was 61.1 µM; in experiment [8] it was 92.3 µM. The TGI in experiment [9] is 72.7 µM; in experiment [19] it was 59.8 µM; in experiment [10] it was above 100 µM; in experiment [11], 58 µM; in [12], above 100 µM; in experiment [13], 56 µM. The TGI in experiment [14] was 98.5 µM; in [15], above 100 µM; in experiment [16], 70.1 µM; in experiment [17], 66 µM; in experiment [18] it was 48 µM.
`COc1c(C)cc2c(c1O)C1NC(C2)[C@H](O)N2C3COC(=O)[C@@]4(CS[C@@H](c5c(OC(C)=O)c(C)c6c(c53)OCO6)C12)NCCC1=C4NC2C=CC=CC12` (some centres undefined): the TGI is below 0.01 µM in [1]; 0.113 µM in experiment [4]; 1.31 µM in experiment [5]; below 0.01 µM in experiment [6]; below 0.01 µM in [7]; below 0.01 µM in experiment [8]. In addition, the TGI was below 0.01 µM in experiment [10]; 0.0148 µM in experiment [11]; 0.0306 µM in [12]; below 0.01 µM in experiment [14]; below 0.01 µM in experiment [16]; below 0.01 µM in experiment [18].
In the case of `COc1ccccc1/C=C1\CCC(CCN2CCOCC2)C1=O` (centres undefined), the TGI in experiment [1], in [4], in experiment [5], in experiment [6], in experiment [7] and in experiment [8] was above 100 µM in each case. The TGI in [9], in [19], in [10], in experiment [11], in [12] and in [14] was above 100 µM each time. For the same compound, the TGI in experiment [16], in [17] and in experiment [18] was above 100 µM each time.
With `COc1cc(/C=C\c2cccnc2)cc(OC)c1OC`, the TGI was above 100 µM in experiment [1]; 69 µM in experiment [2]; above 100 µM in experiment [4]; above 100 µM in experiment [5]; above 100 µM in experiment [6]; above 100 µM in experiment [7]. For the same compound, the TGI in experiment [8], in [9], in experiment [19], in experiment [10], in [11] and in [12] was above 100 µM throughout. In addition, the TGI is 96.3 µM in experiment [13]; above 100 µM in experiment [14]; above 100 µM in experiment [16]; above 100 µM in experiment [17]; 40.8 µM in experiment [18].
Regarding `N#Cc1nc(C(CO)N(Cc2ccccc2)C(=O)O)oc1N` (centres undefined), the TGI in [1], in experiment [2], in experiment [3], in experiment [4], in experiment [5] and in experiment [7] was above 100 µM each time. In addition, the TGI in [19], in experiment [10], in [11], in experiment [12], in experiment [13] and in experiment [14] was above 100 µM in each case. The TGI in [15], in experiment [16], in experiment [17] and in experiment [18] was above 100 µM in each case.
With `CN(Cc1ccccc1)C(=NC#N)N(C)Cc1ccccc1`, the TGI in experiment [1], in [2], in [4], in [5], in experiment [6] and in experiment [7] was above 100 µM in each case. Moreover, the TGI in experiment [9], in [19], in experiment [10], in [11], in experiment [12] and in experiment [13] was above 100 µM each time. The TGI in [14], in experiment [16], in experiment [17] and in experiment [18] was above 100 µM in each case.
Consider `O=c1[nH]cnc2c1CCCN2`, for which the TGI in [1], in experiment [2], in experiment [4], in experiment [5], in experiment [6] and in experiment [7] was above 100 µM throughout. Besides, the TGI in experiment [8], in experiment [9], in experiment [10], in experiment [11], in experiment [12] and in [13] was above 100 µM each time. For the same compound, the TGI in experiment [14], in [16], in [17] and in experiment [18] was above 100 µM in each case.
Take `CC(C)N1CN(C(C(=O)N[C@@H]2C(=O)N3C2SC(C)(C)C3C(=O)O)c2ccc(O)cc2)CSC1=S` (some centres undefined): the TGI is above 100 µM in experiment [1]; above 100 µM in experiment [2]; above 100 µM in experiment [4]; above 100 µM in experiment [5]; 36.9 µM in experiment [6]; above 100 µM in experiment [7]. Further, the TGI in [8], in [9], in experiment [19], in experiment [11], in experiment [12] and in [13] was above 100 µM each time. Moreover, the TGI in experiment [14], in experiment [16], in [17] and in experiment [18] was above 100 µM throughout.
